Data set [1] can be described thus: Effect of pH on drug penetration through normal untreated hairless mouse skin (Example 6A). It is filed as in vitro ADME. Particulars: mouse.
The nature of data set [2]: Effect of pH on drug penetration through hairless mouse skin pretreated with Sigma papain (Example 6B). It is filed as in vitro ADME. The arrangement: E: unit not given here. Particulars: mouse, read-out: P (permeability). The procedure:
(§1) B. Effect of pH on drug penetration through hairless mouse skin pretreated with Sigma papain of concentration 0.093 mg/ml for 24 hours

The subject of data set [3] is hairless mouse skin pretreated with Sigma papain. The description is as above. It is filed as in vitro ADME. The arrangement: E: unit not given here. To be noted: for E: Sigma papain 0.093 mg/ml for 24 hours. On the procedure: as §1
In data set [4] the test system is Nude Mouse Skin. The experiment in a line: In vivo skin recovery following papain treatment: percent urinary recovery 7 days after papain (Example 1B). The arrangement: species or system congenitally athymic nude mice. The procedure:
Experiments were conducted to measure the time required for papain-treated mice to return to normal levels of absorption. These experiments were conducted as described in Example 1A, except that following the removal of papain from the mouse's skin, the mice were maintained separately in metabolism cages for varying periods of time prior to the application of the labeled model compounds. After various time intervals, 150 μl of radiolabeled chemicals were applied separately on the 1 cm^2 marked areas on the backs of the mice, where papain had previously been applied. The mice were then kept in separate metabolism cages and at time intervals of 17, 41, and 65 hours, urine was collected and counted using a scintillation counter.

Data set [5] concerns Papain-Treated Athymic Nude Mice Skin. The experiment in a line: In vitro permeation through excised papain-treated athymic nude mouse skin, Franz-type diffusion cells (Example 2). The class given is in vitro ADME, congenitally athymic nude mice. The procedure: Because of some complications encountered during studies utilizing papain treatment by in vivo method (e.g. extended excretion due to storage in various body compartments, delayed response times, etc.) it was decided that additional studies should be conducted wherein the mouse skin was allowed to recover in situ, then excised after various time intervals and evaluated by in vitro permeation methods.
These experiments were conducted by preparing, applying, and occluding papain solutions onto the backs of congenitally athymic nude mice in the same manner as described in Example 1A. At the end of the 24-hour papain treatment, the skin was again cleansed of excess solution. Skin was then excised from part of the animals. The remainder of the animals were housed individually in regular cages for various periods of time (24 hours and 48 hours), after which the treated areas were excised. Immediately following excision of the treated areas, the skins were mounted over Franz-Type, Single-Compartment Diffusion Cells. Four hundred μl of saturated solutions of radiolabeled citric acid, TEAB, glucose, and hydrocortisone were applied, individually, to the exposed surface of the mounted skins on the donor chamber. Saturated solutions of each of these substances were used in order to ensure maximum availability of labeled substances. At varying time intervals, 100 μl samples were removed from the receiver chambers for scintillation counting. All experiments were conducted at 25° C.

Data set [6] deals with mouse skin. The experiment in a line: Citric acid penetration through mouse skin with two sources of papain (Example 8). It is filed as in vitro ADME. To be noted: FIG. 20, 0.170 mg papain in 0.1 ml of water; Sigma papain not activated. On the procedure: Each enzyme preparation contained 0.170 mg of papain dissolved in 0.1 ml of water. One sample of papain was obtained from Allergan. The other was obtained from Sigma Chemical. […] The Sigma Chemical papain was not activated in this experiment.

For data set [7], the system named is Nude Mouse Skin. Description: Percent urinary recovery of radiolabeled chemicals and protein through nude mouse skin immediately following papain treatment, and controls (Example 1A). The procedure:
Various anionic, cationic, and nonionic chemicals were utilized as model compounds to determine the influence of proteolytic enzymes of the transdermal penetration of these substances. […] Additional studies were performed using ^14 -C-labeled albumin, lysozyme, and insulin to determine the ability of the proteolytic enzymes to enhance the percutaneous absorption of larger molecules.
Two hundred μl of this solution was applied on to 1 cm^2 areas on the back of congenitally athymic nude mice. The 1 cm^2 areas were covered with folded gauze pads to absorb the excess papain solution, then the areas were occluded with a transparent dressing (Bioclusive Tape) and an adhesive tape. Each mouse was individually housed in separate cages for 24 hours. At the end of this time, residual papain on the surface of the mouse's skin was removed by washing. After cleansing the skin, 150 μl of radiolabeled material was applied separately on each marked area of mouse skin and covered with gauze sponge and Bioclusive tape and adhesive tape. Mice were kept in metabolism cages, one animal per cage, and urine samples collected for scintillation counting to determine the quantity of radiolabeled materials being excreted. Parallel studies were conducted simultaneously on non- papain-treated living mice. These studies served as controls against which the treated animals were measured.

In data set [8] the test system is normal untreated hairless mouse skin. The experiment in a line: Effect of pH on drug penetration through normal untreated hairless mouse skin (Example 6A). The class given is in vitro ADME. Particulars: pH 8.0.
The subject of the next data set is Hairless mouse skin. To be noted: papain 0.093 mg/ml, pH 7.4, 24 hours pretreatment. On the procedure:
Hairless mouse skin was pretreated with papain at a concentration of 0.093 mg/ml at pH 7.4 for 24 hours.

In data set [9] the test system is mouse skin. The text has this: In this experiment, varying amounts of Sigma papain, activated with cysteine and EDTA, were used.
In the next data set the test system is skin. The experiment in a line: Pretreatment of skin samples with papain: drug penetration, skin damage and activation. On the procedure: Whatever the enzyme or enzymes selected, each is typically admixed with a liquid, such as water or ethanol to form an enzyme preparation. The concentration of enzymes(s) in liquid will be of a sufficient quantity to increase the skin's permeability to selected drugs over a predetermined time period. […] Concentrations of papain in water will generally be greater than about 0.019 milligrams/milliliter (mg/ml). Preferred concentrations of papain in water will be less than about 0.093 mg/ml.
For example, papain from Sigma Chemical may be activated with the chelating agent ethylenediaminetetraacetic acid ("EDTA"). […] Amounts of EDTA in a papain enzyme preparation will vary from 2 mg/ml to about 20 mg/ml. The amino acid cysteine can also serve as an activating agent.

The test system of data set [10] is mouse skin. Description: Skin damage as measured by bleeding of mouse skin (Example 5). The class given is in vivo. The procedure:
The absolute amounts and relative concentrations of an enzyme preparation containing papain to determine skin damage as measured by bleeding of mouse skin was determined.

The mark [11] stands for this setting: pH 5.9, read-out: P (permeability).
[12] abbreviates: pH 6.6, read-out: P (permeability).
Setting [13] is: pH 5.9, Sigma papain 0.093 mg/ml for 24 hours, pH 5.9.
Where [14] appears, read: pH 6.6, Sigma papain 0.093 mg/ml for 24 hours, pH 6.6.
Where [15] appears, read: pH 7.4, Sigma papain 0.093 mg/ml for 24 hours, pH 7.4.
The mark [16] stands for this setting: 7 days following papain treatment.
[17] abbreviates: 7 hours exposure, 1 cm^2 section of skin, saturated solution in water, 25° C.
Where [18] appears, read: control, no papain treatment, immediate.
The mark [19] stands for this setting: immediately following papain treatment.
Where [20] appears, read: papain greater than 0.093 mg/ml, pH 7.4.

Where two headings read alike, the source gives them in different places.

For the molecule `CC(=O)OCC[N+](C)(C)C.[Cl-]` [Acetylcholine Chloride, acetylcholine chloride], the Papp in data set [1] (setting [11]) was 0.0291 ×10⁻⁶ cm/s; in data set [1] (setting [12]) it was 0.026 ×10⁻⁶ cm/s; in data set [1] (pH 7.4, read-out: P (permeability)) it was 0.032 ×10⁻⁶ cm/s; in data set [1] (pH 8.0, read-out: P (permeability)), 0.0466 ×10⁻⁶ cm/s; in data set [2] (setting [13]), 3 ×10⁻⁶ cm/s; in data set [2] (setting [14]), 3.88 ×10⁻⁶ cm/s. Besides, the Papp turned out to be 3.23 ×10⁻⁶ cm/s in data set [2] (setting [15]) and 3.14 ×10⁻⁶ cm/s in data set [2] (pH 8, Sigma papain 0.093 mg/ml for 24 hours, pH 8.0). Further, the E in data set [3] (pH 5.9) came to 103.09; in data set [3] (pH 6.6), 149.23; in data set [3] (pH 7.4), 100.94; in [3] (pH 8.0), 67.38.

`C=CCc1ccccc1OCC(O)CNC(C)C` (stereo not shown) [Alprenolol, alprenolol]: the E turned out to be 22.39 in [3] (pH 5.9), 17.18 in [3] (pH 6.6), 7.17 in data set [3] (pH 7.4) and 7.86 in [3] (pH 8.0). Besides, the “P (permeability)” value in data set [3] (mouse, pH 8) was 1.65 = 10^-6 cm/sec.

As to `O=C(O)CC(O)(CC(=O)O)C(=O)O` [Citric Acid, citric acid], in the data set on Nude Mouse Skin [4] (setting [16]), the “Percent Recovery (urinary recovery)” value came out at 0.2%. In [5] (setting [17]), the transdermal penetration entry was “about 55 mg”. For the same molecule, the “penetration through mouse skin” value in the data set with mouse skin [6] was “enhanced to a greater extent by the Allergan papain than that of Sigma Chemical”.

Regarding `OC[C@H]1OC(O)[C@H](O)[C@@H](O)[C@@H]1O` (stereo partly shown) [Glucose, glucose], the “Percent Recovery (urinary recovery)” value in the data set on Nude Mouse Skin [7] (setting [18]) was 0.07%; in the data set on Nude Mouse Skin [7] (setting [19]), 1.8%; in the data set on Nude Mouse Skin [4] (setting [16]), 0.1%. Moreover, the transdermal penetration entry in data set [5] was “about 22 mg”.

As to `C[C@]12CCC(=O)C=C1CC[C@@H]1[C@@H]2[C@@H](O)C[C@@]2(C)[C@H]1CC[C@]2(O)C(=O)CO` [Hydrocortisone, hydrocortisone], the “Percent Recovery (urinary recovery)” value in the data set with Nude Mouse Skin [7] (setting [18]) was found to be 2.5%; in the data set on Nude Mouse Skin [7] (setting [19]), 24.7%; with Nude Mouse Skin [4] (setting [16]) it was 0.6%. Also, in [5] (7 hours exposure, 1 cm^2 section of skin, saturated solution in ethanol, 25° C), the transdermal penetration result is “about 125 μg”.

For `CC(=O)[C@H]1CC[C@H]2[C@@H]3CCC4=CC(=O)CC[C@]4(C)[C@H]3CC[C@]12C` [Progesterone, progesterone], the Papp in [1] (setting [11]) is 2.88 ×10⁻⁶ cm/s; in [1] (setting [12]), 2.92 ×10⁻⁶ cm/s; in [2] (setting [13]), 3.6 ×10⁻⁶ cm/s; in data set [2] (setting [14]), 4.39 ×10⁻⁶ cm/s; in data set [2] (setting [15]), 3.41 ×10⁻⁶ cm/s. Further, the “P (permeability)” value in [8] came out at 0.247 ×10⁻⁶ cm/s. For the same molecule, the E is given as 1.25 in [3] (pH 5.9), 1.50 in data set [3] (pH 6.6), 1.17 in data set [3] (pH 7.4) and 1.17 in data set [3] (pH 8.0).

In the case of `CC[N+](CC)(CC)CC.[Br-]` [TEAB, tetraethylammonium bromide], the “Percent Recovery (urinary recovery)” value in the data set with Nude Mouse Skin [4] (mouse, in vivo, topical or ocular) worked out at 5.3%. The same molecule came in with a transdermal penetration in data set [5] (setting [17]) of approximately 19 mg. Besides, the “increase in absorption in comparison to normal, untreated mouse skin” value in the data set with Hairless mouse skin turned out to be 33 fold. For the same molecule, in the data set with mouse skin [9], the “drug penetration through mouse skin” value is “varies directly with the amount of papain used”. Besides, in the data set on skin, the “penetration through the skin” value is given as “increases the penetration”.

Consider `CC(=O)CC(c1ccccc1)c1c(O)c2ccccc2oc1=O` (stereo not shown) [Warfarin, warfarin], for which the Papp came out at 1.27 ×10⁻⁶ cm/s in data set [2] (Sigma papain 0.093 mg/ml for 24 hours, pH 5.9); 1.2 ×10⁻⁶ cm/s in data set [2] (Sigma papain 0.093 mg/ml for 24 hours, pH 6.6); 0.99 ×10⁻⁶ cm/s in data set [2] (Sigma papain 0.093 mg/ml for 24 hours, pH 7.4); 1.21 ×10⁻⁶ cm/s in [2] (Sigma papain 0.093 mg/ml for 24 hours, pH 8.0).

Take Albumin: 14-C-labeled albumin: the “Percent Recovery (urinary recovery)” value in the data set with Nude Mouse Skin [4] (setting [16]) amounted to 0.0%.

As to Insulin: 14-C-labeled insulin, in the data set with Nude Mouse Skin [4] (setting [16]), the “Percent Recovery (urinary recovery)” value is recorded as 0.0%.

On to Lysozyme: 14-C-labeled lysozyme, for which the “Percent Recovery (urinary recovery)” value in the data set on Nude Mouse Skin [4] (setting [16]) amounted to 0.0%.

B1: papain: A preferred enzyme is papain, which is readily available from Allergan of Irvine, Calif., Sigma Chemical Company of St. Louis, Mo., and other sources (protein, UniProt P00784 134-345, looked up)
Papain: IPEYVDWRQKGAVTPVKNQGSCGSCWAFSAVVTIEGIIKIRTGNLNEYSEQELLDCDRRSYGCNGGYPWSALQLVAQYGIHYRNTYPYEGVQRYCRSREKGPYAAKTDGVRQVQPYNEGALLYSIANQPVSVVLEAAGKDFQLYRGGIFVGPCGNKVDHAVAAVGYGPNYILIKNSWGTGWGENGYIRIKRGTGNSYGVCGLYTSSFYPVKN
Take B1: the “time until bleeding observed” value with mouse skin [10] (absolute amount of papain: 0.010 mg/0.108 ml) was more than 24 h; in the data set with mouse skin [10] (absolute amount of papain: 0.030 mg/0.108 ml), “about 5.0 hrs”; in the data set with mouse skin [10] (absolute amount of papain: 0.050 mg/0.180 ml), “about 1.5 hrs”; with mouse skin [10] (absolute amount of papain: 0.070 mg/0.250 ml) it was “about 0.5 hrs”; with mouse skin [10] (concentration of papain: 0.010 mg/0.108 ml) it was more than 24 h; in the data set on mouse skin [10] (concentration of papain: 0.020 mg/0.108 ml), more than 24 h. Also, the “time until bleeding observed” value with mouse skin [10] (concentration of papain: 0.030 mg/0.108 ml) and in the data set on mouse skin [10] (concentration of papain: 0.040 mg/0.108 ml) was approximately 24 h each time. The “penetration of drug through the skin” value with skin (0.10 molar cysteine with 0.0375 molar EDTA as activating agent) was “greater penetration of drug through the skin”. Besides, in the data set on skin (setting [20]), the drug penetration result was “greater drug penetration”. Moreover, the skin damage result in the data set with skin (setting [20]) is reported as “damages the skin, possibly leading to bleeding”.

For the origin of these results see US5156846A, “Percutaneous drug delivery system” (University of Utah, priority 1991, dated 1992).
